The results in this text go back to ChEMBL document CHEMBL6096662, “Discovery and structure-activity relationship study of nicotinamide derivatives as DNA demethylase ALKBH2 inhibitors” (Eur J Med Chem, 2025).

In assay [1] the target is T1, DNA oxidative demethylase ALKBH2 (Homo sapiens, UniProt Q6NS38).
T1 sequence (Q6NS38 whole entry): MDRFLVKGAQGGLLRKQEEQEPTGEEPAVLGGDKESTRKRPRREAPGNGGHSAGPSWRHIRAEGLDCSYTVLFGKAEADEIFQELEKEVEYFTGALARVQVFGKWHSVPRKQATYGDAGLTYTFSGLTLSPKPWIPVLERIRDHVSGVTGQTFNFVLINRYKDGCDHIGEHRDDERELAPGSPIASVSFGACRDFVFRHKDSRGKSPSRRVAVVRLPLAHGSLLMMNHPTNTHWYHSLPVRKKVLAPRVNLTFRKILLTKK
Kind of assay: Inhibition of demethylase activity of ALKBH2 (56 to 261 residues)(unknown origin) extracted from Escherichia coli BL21 (DE3) using 1meA dsDNA as substrate incubated for 30 mins in presence of alpha-KG by methylation-sensitive restriction enzyme digestion assay.

The target of assay [2] is T1, DNA oxidative demethylase ALKBH2. In words: Inhibition of ALKBH2 (56 to 261 residues)(unknown origin) extracted from Escherichia coli BL21 (DE3) using 5meC DNA as substrate by FP assay.
The test system of another assay is U-87 MG. In words: Anti-viability activity against human U87 cells by MTT assay. In kind it is functional, cell-based, U-87MG ATCC. In general terms: Tetrazolium assays rely on reduction of a dye to a coloured formazan, in cell work by metabolically active cells.
Assay [3] has as its target Alpha-ketoglutarate-dependent dioxygenase FTO (Homo sapiens, UniProt Q9C0B1). In words: Inhibition of demethylase activity of FTO (35 to 505 residues)(unknown origin) extracted from Escherichia coli BL21 (DE3) using 6meA dsDNA as substrate incubated for 30 mins by methylation-sensitive restriction enzyme digestion assay.
The next assay has as its target RNA demethylase ALKBH5 (Homo sapiens, UniProt Q6P6C2). In words: Inhibition of demethylase activity of ALKBH5 (66 to 292 residues)(unknown origin) extracted from Escherichia coli BL21 (DE3) using 6meA dsDNA as substrate incubated for 30 mins by methylation-sensitive restriction enzyme digestion assay.
The target of assay [4] is T1, DNA oxidative demethylase ALKBH2. Kind of assay: Inhibition of ALKBH2 (56 to 261 residues)(unknown origin) extracted from Escherichia coli BL21 (DE3) using 5'-GAAGACCT(1meA)GGCGTCC-3'/5'- CTGGGACGCCTAGGTCTTCACTG-3' as substrate incubated for 30 mins by FP assay.
Assay [5] deals with T2, Alpha-ketoglutarate-dependent dioxygenase alkB homolog 3 (Homo sapiens, UniProt Q96Q83).
T2 sequence (Q96Q83 whole entry): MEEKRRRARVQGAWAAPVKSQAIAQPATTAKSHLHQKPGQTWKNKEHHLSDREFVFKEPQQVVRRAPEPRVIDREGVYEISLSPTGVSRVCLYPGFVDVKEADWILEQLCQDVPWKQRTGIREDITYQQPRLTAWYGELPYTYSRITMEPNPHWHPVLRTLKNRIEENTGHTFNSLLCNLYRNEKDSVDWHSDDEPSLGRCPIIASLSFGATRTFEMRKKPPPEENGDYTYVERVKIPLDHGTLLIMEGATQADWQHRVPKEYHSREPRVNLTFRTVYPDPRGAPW
Kind of assay: Inhibition of demethylase activity of ALKBH3 (70 to 286 residues)(unknown origin) extracted from Escherichia coli BL21 (DE3) using 1meA dsDNA as substrate incubated for 30 mins by methylation-sensitive restriction enzyme digestion assay.

For assay [6], the target named is T1, DNA oxidative demethylase ALKBH2. Kind of assay: Binding affinity to ALKBH2 (56 to 261 residues)(unknown origin) assessed as dissociation constant by ITC assay. (In general: Isothermal titration calorimetry measures the heat released or taken up as one component is titrated into another.)
Assay [7] can be described thus: Inhibition of demethylase activity of ALKBH1 (19 to 369 residues)(unknown origin) extracted from Escherichia coli BL21 (DE3) using 6meA unpaired dsDNA as substrate incubated for 30 mins by methylation-sensitive restriction enzyme digestion assay. Further details: species or system Homo sapiens.

pIC50, pKd: −log10 of the molar value.

As usually defined, the pIC50 is −log10 of the IC50, conventionally taken in molar units. Usually pKd stands for the negative decadic logarithm of the Kd, by convention in mol/L.

Alpha-ketoglutarate-dependent dioxygenase FTO, sequence (Q9C0B1 whole entry, the tested form may be a part): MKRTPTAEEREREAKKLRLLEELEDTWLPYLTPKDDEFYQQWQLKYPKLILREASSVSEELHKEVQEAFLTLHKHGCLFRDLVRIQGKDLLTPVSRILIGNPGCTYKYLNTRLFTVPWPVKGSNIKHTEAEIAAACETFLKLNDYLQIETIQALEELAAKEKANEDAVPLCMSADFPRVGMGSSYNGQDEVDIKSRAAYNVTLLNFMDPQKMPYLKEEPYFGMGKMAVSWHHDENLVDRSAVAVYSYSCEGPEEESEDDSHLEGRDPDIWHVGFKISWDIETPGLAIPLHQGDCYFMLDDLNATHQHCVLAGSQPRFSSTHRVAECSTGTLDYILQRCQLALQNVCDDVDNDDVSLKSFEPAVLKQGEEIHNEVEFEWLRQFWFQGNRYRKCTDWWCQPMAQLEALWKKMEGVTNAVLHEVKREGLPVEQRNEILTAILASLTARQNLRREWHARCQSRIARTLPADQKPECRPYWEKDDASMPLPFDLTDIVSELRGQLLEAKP
RNA demethylase ALKBH5, sequence (Q6P6C2 whole entry, the tested form may be a part): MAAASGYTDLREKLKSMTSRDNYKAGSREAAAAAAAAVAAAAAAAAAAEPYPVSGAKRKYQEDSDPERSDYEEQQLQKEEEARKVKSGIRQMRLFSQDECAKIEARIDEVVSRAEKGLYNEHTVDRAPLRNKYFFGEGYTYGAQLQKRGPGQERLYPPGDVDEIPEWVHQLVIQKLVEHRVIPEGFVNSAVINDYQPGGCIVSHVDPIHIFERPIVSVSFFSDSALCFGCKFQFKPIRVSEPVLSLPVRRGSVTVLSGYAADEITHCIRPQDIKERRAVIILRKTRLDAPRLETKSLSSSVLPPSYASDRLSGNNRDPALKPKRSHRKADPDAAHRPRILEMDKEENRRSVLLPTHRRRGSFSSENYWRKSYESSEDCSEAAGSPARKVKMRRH

As for `CC(C)(C)C(NC(=O)c1ccc(-n2cc(C(=O)O)cn2)nc1)c1ccccc1` (stereo not drawn), the negative-log IC50 (pIC50) in assay [1] was 5.83; in assay [2], 7.33; in the assay on U-87 MG, 3.99; in [3], less than 3.70; against RNA demethylase ALKBH5, less than 3.70; in [4] it was 7.51. The pIC50 in assay [5] and in [7] was less than 3.70 in each case. Further, the negative-log Kd (pKd) in [6] is 6.65.

`CCOC(=O)c1cnn(-c2ccc(C(=O)NC(c3ccccc3)C(C)(C)C)cn2)c1` (stereo not drawn) gave a pIC50 in the assay on U-87 MG of 5.34.

Turning to `O=C(O)c1cnn(-c2ccccc2)c1`, the pIC50 in [4] is 4.06.

In assay [4], `O=C(O)c1cnn(-c2ccc(C(=O)N3CCCC(c4ccccc4)C3)cn2)c1` (stereo not drawn) showed a negative-log IC50 (pIC50) of 7.14.

`COC1CCN(C(=O)c2ccc(-n3cc(C(=O)O)cn3)nc2)C1` (stereo not drawn) had a negative-log IC50 (pIC50) in assay [4] of 6.42.
